This is an account of results in PMC4992410 (ACS chemical biology, 2016).

The experiment concerns full-length IRE1α in INS-1 rat insulinoma cells. Kind of experiment: XBP1 mRNA splicing in INS-1 cells. It counts as cell-based. To be noted: absence of ER stress; for spliced cellular XBP1 mRNA levels: 3 and 10 μM, 2 hours.

With `COc1cc(N2CCC(N3CCN(C)CC3)CC2)ccc1Nc1ncc(Cl)c(Nc2ccccc2P(C)(C)=O)n1` [AP26113], the “spliced cellular XBP1 mRNA levels” value is “increase in spliced cellular XBP1 mRNA levels” and the “spliced XBP1 mRNA level compared with 0.5 μg/mL tunicamycin” value is given as “equal or greater level”.
The like results for `O=C(Nc1c[nH]nc1-c1nc2ccc(CN3CCOCC3)cc2[nH]1)NC1CC1` [AT9283] were, in that order, “increase in spliced cellular XBP1 mRNA levels” and “equal or greater level”.
As to `NC(=O)Nc1cc(-c2cccc(F)c2)sc1C(=O)N[C@H]1CCCNC1` [AZD7762], the “spliced cellular XBP1 mRNA levels” value is given as “increase in spliced cellular XBP1 mRNA levels”.
Consider `COc1cc(N2CCC(N3CCN(C)CC3)CC2)ccc1Nc1ncc(Cl)c(Nc2ccccc2S(=O)(=O)C(C)C)n1` [TAE684], for which the “spliced cellular XBP1 mRNA levels” value is on record as “increase in spliced cellular XBP1 mRNA levels”.
